Experiments:
mouse (ddY male mouse) = experiment: Inhibition zone formation around impregnated filter paper in rearing cage (Test Example 6); format: in vivo; conditions: 50 μl on filter paper, 16 mice; for Formation rate of inhibition zone: time until inhibition zone is formed
Description: A total of 16 animals of a mouse (ddY male mouse of 7 weeks of age) were released in a rearing cage (16 cm in breadth, 23 cm in length and 20 cm in height). Thereafter, a piece of filter paper (1 cm in width and 10 cm in length) impregnated with 50 μl of essential oil shown in the following Table 4 or 50 μl of water was hung down from the center of the ceiling of the rearing cage, and a period of time until a state in which mice gathered in the periphery in the rearing cage but mice are not present around the filter paper (inhibition zone) is formed was measured.

rodent (mouse) = format: in vivo; conditions: Test Example 1, text; azodicarbonamide at 0.2 g, nitrocellulose at 23 g

Row | Structure (SMILES) | Presence of inhibition zone (mouse (ddY male mouse)) | Formation rate of inhibition zone (mouse (ddY male mouse)) [s] | Repelled rodents in comparison with the control (rodent (mouse))
1 | Cc1ccc(C(C)C)cc1 [p-Cymene] | present | 50 | 
2 | CC1=CCC(C(C)C)=CC1 [γ-Terpinene] | present | 23 | 
3 | CCCCCCOC(C)=O [Hexyl acetate] | present | 24 | 
4 | NC(=O)N=NC(N)=O [azodicarbonamide] |  |  | a distinct difference was observed in comparison with the control
